{"source": "patent EP4257135A1", "about": "“BENZIMIDAZOLE DERIVATIVES FOR PULMONARY ARTERIAL HYPERTENSION” (Justus-Liebig-Universität Gießen, priority 2022, dated 2023)", "key": {"[1]": {"tested_on": "PAH-FBs", "experiment": "Apoptosis by Cell Death Detection ELISAPLUS in PAH fibroblasts", "type": "cell-based, human", "conditions": "PAH-FBs isolated ex vivo; various concentrations; vs DMSO; 24 h", "excerpt": "(§1) Diese Untersuchungen führten zu der Erkenntnis, dass die epigenetische Regulation der entwicklungsbedingten TF-Expression in der Lunge durch Modulation der EP300/CREBBP-Funktion rückgängig gemacht werden kann. Die Wirkung des niedermolekularen Inhibitors (Substanz, Wirkstoff) SGC-CBP30 auf die Proliferation von Gefäßzellen, die Apoptose sowie die Gen- und Proteinexpression wurde mit Hilfe geeigneter Assays nach der Transfektion untersucht. Nachdem Zellen zur Subkonfluenz gewachsen sind, wurde ihnen mit steigenden Konzentrationen der selektive EP300-Inhibitor SGC-CBP30 (Sigma, Katalognummer: SML1133) hinzugefügt. Die aus PAH-Patienten isolierten FBs wurden also mit dem isoformselektiven HAT-Inhibitor SGC-CBP30 behandelt. Gleichzeitig wurde den Zellen das Lösungsmittel DMSO (Sigma) mit entsprechenden Konzentrationen hinzugefügt. […]\n(§2) • A: PAH-FBs wurden mit siRNAs (siP300) behandelt, die auf EP300 abzielen (n=3), um die genspezifische funktionelle Rolle von EP300 bei der Hyperproliferation ex vivo 48 Stunden nach der Transfektion zu untersuchen. […] Skalenbalken: 50 µm. • E: Die Wirkung der P300-Inhibition (200 µM) auf den Gefäßumbau wurde durch Quantifizierung der prozentualen medialen Wanddicke in den mit dem EP300/CREBBP-Inhibitor SGC-CBP30 inkubierten PCLS im Vergleich zu den mit DMSO inkubierten Kontrollen bewertet. […]"}, "[2]": {"tested_on": "PAH-FBs", "experiment": "Cell proliferation by BrdU incorporation in PAH fibroblasts", "type": "cell-based, human", "conditions": "PAH-FBs isolated ex vivo; various concentrations; vs DMSO; 24 h", "excerpt": "as §1, §2"}}}
{"compound": "COc1ccc(CCc2nc3cc(-c4c(C)noc4C)ccc3n2C[C@H](C)N2CCOCC2)cc1Cl", "note": "[SGC-CBP30, 2-[2-(3-Chloro-4-methoxyphenyl)ethyl]-5-(3,5-dimethyl-1,2-oxazol-4-yl)-1-[(S)-2-(morpholin-4-yl)propyl]-1H-benzimidazole]", "values": [{"measurement": "Apoptoserate", "setting": "[1]", "result": "schwächte den hyperproliferativen Phänotyp und die Apoptoserate von PAH-FBs und PAH-SMCs deutlich ab"}, {"measurement": "hyperproliferativer Phänotyp (Zellproliferation, BrdU)", "setting": "[2]", "result": "schwächte den hyperproliferativen Phänotyp und die Apoptoserate von PAH-FBs und PAH-SMCs deutlich ab"}]}
